Read-outs that look alike come from different tables or passages of the source.
Legend:
Human lung cancer A549 = experiment: Xenograft tumor nude mice screening, A549; format: in vivo, BALB/c nu mice
Procedure: Certificate NO. SCXK (BeiJing) 2005-0013. • Cell lines: The tumor cell lines were passaged and cultured by our Lab, some of them was obtained from ATCC. • The tumor cell lines included: Human breast cancer MX-1 and MCF-7. • Human ovarian cancer A2780, and clear Human ovarian cell cancer ES-2, • Human lung cancer H1975 and A549. Experiment Method: • 1. […] The administration dose and treatment progress was determined based from the preliminary experiments, which had solid effects and the shortest treatment period—the dose of 30 mg/kg/day, and the administration duration time of every lot experiment was not more than 12 days.

[1] = system: 60 human tumor cell lines; experiment: NCI screening of antitumor activity in vitro in 60 human tumor cell lines; format: cell-based
From the text: The experimental results refer to FIGS. 1-12.

lewis lung cancer = conditions: 10 mg/kg i.p. once daily
Procedure: C57Bl/6 mice with lewis lung cancer were sacrificed and the tumor was removed. The tumor cell suspension (5×10^6 cell/mL) was prepared in a sterile condition. The suspension (0.2 mL/mice, 1×10^6 tumor cell) was inoculated subcutaneously into the axillary of 24 C57Bl/6 mice. […] From the 7th day after the implantation, the long diameter and short diameter of tumor was measured every 2 days. Tumor volume was calculated by the formula (½)×long diameter×short diameter^2. Drug was withdrawn on the eighteenth day after the implantation. All mice were then sacrificed and the body weight was measured. The tumors, spleen and lung were removed and weighed. The lungs were fixed in Bouin's fixative for 24 h. The numbers of lung metastasis nodule were counted, and the statistics was evaluated by Mann-Whitney U test.

From the text for Human lung cancer H460: Through cell culture in vitro, the tumor was inoculated on nude mice, the tumor grew and passaged for the experiment use. • Animals: BALB/c nude mice, ♀, 4˜5 weeks old, were obtained from the Experimental Lab, Chinese Academy of Medical Science, Certificate NO. […] Experiment Method:
The tumor-bearing mice with good tumor growth and good general physical condition were selected and sacrificed. Tumor was isolated in a sterile condition and cut into fragments (diameter for about 2-3 mm) by surgical knife. The fragments were then hypodermically inoculated in posterior axillary of nude mice by means of a trocar.
After the tumors grew naturally for eight days, the average volume of tumors reaches 130 mm^3. The length and width of tumor was measured using vernier calipers, and divided into groups by the tumor volume.
The mice were divided into five groups for observation, each groups had eight mice. […] Respective drug was administrated for each group from the grouping day.
The experiment was terminated 24 hours after the last administration.
During the experimentation, the tumors sizes (length and width) and body weights of mice were measured once every three days. The tumor volume (TV) and relative tumor volume (RTV) were calculated according to the method for references, and the tumor volume growth tendency chart was plotted.
At the end of the experiment, the mice were sacrificed. Tumors were removed and weighed, and the inhibition rate of the tumor growth by drugs was calculated. Statistical significance of the tumor weight, tumor volume and RTV level were evaluated by t-test.
[formula] • (C, average tumor weight of control group; T, average tumor weight of administrated group) • Tumor Volume (TV)=length×width^2/2. • Relative Tumor Volume (RTV) formula: Vt/Vo • (Vo is the volume of TV at the beginning of the grouping, and Vt is the volume of TV at measure time) • Anti-tumor activities were evaluated by Tumor Relative proliferation Rate T/C (%)
[formula] • Therapeutic effect evaluation standard: T/C (%)>40, was judged as invalid; • T/C (%)≦40, and through statistical evaluation P<0.05, was judged as valid.

CC(=O)O[C@H]1C(=O)[C@@]2(C)[C@H]([C@H](OC(=O)c3ccccc3)[C@]3(O)C[C@H](OC(=O)[C@H](OC(=O)CCC(=O)NCCCCC(NC(=O)CC[C@H](NC(=O)C(C)NC(=O)/C=C/c4ccc(Cl)cc4)C(N)=O)C(N)=O)[C@@H](NC(=O)c4ccccc4)c4ccccc4)C(C)=C1C3(C)C)[C@]1(OC(C)=O)CO[C@@H]1C[C@@H]2O (stereo partly shown) [MTC-220]
Body weight Beginning (Human lung cancer A549; 30 mg/kg × 12, i.p.): 25.2 ± 1.31 g | Body weight End (Human lung cancer A549; 30 mg/kg × 12, i.p.): 26.3 ± 1.51 g | RTV (Human lung cancer A549; 30 mg/kg × 12, i.p.): 0.67 ± 0.411 | Tumor volume Beginning (Human lung cancer A549; 30 mg/kg × 12, i.p.): 95 ± 27.7 mm^3 | Tumor volume End (Human lung cancer A549; 30 mg/kg × 12, i.p.): 74 ± 55.2 mm^3 | Tumor weight (Human lung cancer A549; 30 mg/kg × 12, i.p.): 0.062 ± 0.041 g | Death (Human lung cancer A549; 30 mg/kg/day, after drug withdrawal): one mouse died one week after drug withdrawal | Tumor observation (in words) (Human lung cancer A549; 30 mg/kg/day, during the administration): became smaller and smaller, but didn't disappear | 50% growth inhibition (GI50) activity [1]: in the same magnitude range as paclitaxel | Lung weight (lewis lung cancer): 152 ± 37 mg | Toxic and side effect (lewis lung cancer): no toxic and side effect | Body weight Beginning (Human lung cancer H460; 5 mg/kg × 25, i.p.): 18.0 ± 0.95 g | Body weight End (Human lung cancer H460; 5 mg/kg × 25, i.p.): 21.9 ± 1.10 g | RTV (Human lung cancer H460; 5 mg/kg × 25, i.p.): 32.0 ± 8.27 | T/C (Human lung cancer H460; 5 mg/kg × 25, i.p.): 96.2% | TGI (Human lung cancer H460; 5 mg/kg × 25, i.p.): 2.15% | Tumor volume Beginning (Human lung cancer H460; 5 mg/kg × 25, i.p.): 125 ± 36.8 mm^3 | Tumor volume End (Human lung cancer H460; 5 mg/kg × 25, i.p.): 3737 ± 591.0 mm^3 | Tumor weight (Human lung cancer H460; 5 mg/kg × 25, i.p.): 2.91 ± 0.695 g | Growth rate of tumor volume compared to negative control (Human lung cancer H460; 5 mg/kg, 25 days successive administration): not significantly different | Body weight Beginning (Human lung cancer H460; 10 mg/kg × 25, i.p.): 18.2 ± 0.70 g | Body weight End (Human lung cancer H460; 10 mg/kg × 25, i.p.): 21.4 ± 1.15 g | RTV (Human lung cancer H460; 10 mg/kg × 25, i.p.): 27.7 ± 6.81 | T/C (Human lung cancer H460; 10 mg/kg × 25, i.p.): 83.1% | TGI (Human lung cancer H460; 10 mg/kg × 25, i.p.): 17.3% | Tumor volume Beginning (Human lung cancer H460; 10 mg/kg × 25, i.p.): 125 ± 43.0 mm^3 | Tumor volume End (Human lung cancer H460; 10 mg/kg × 25, i.p.): 3274 ± 797.0 mm^3 | Tumor weight (Human lung cancer H460; 10 mg/kg × 25, i.p.): 2.46 ± 0.624 g | Tumor volume inhibition (Human lung cancer H460; 10 mg/kg, end of the experiment): 18.8% | Body weight Beginning (Human lung cancer H460; 20 mg/kg × 25, i.p.): 17.8 ± 1.10 g | Body weight End (Human lung cancer H460; 20 mg/kg × 25, i.p.): 18.9 ± 2.49 g | RTV (Human lung cancer H460; 20 mg/kg × 25, i.p.): 16.7 ± 9.93 | T/C (Human lung cancer H460; 20 mg/kg × 25, i.p.): 50.1% | TGI (Human lung cancer H460; 20 mg/kg × 25, i.p.): 52.9% | Tumor volume Beginning (Human lung cancer H460; 20 mg/kg × 25, i.p.): 123 ± 44.6 mm^3 | Tumor volume End (Human lung cancer H460; 20 mg/kg × 25, i.p.): 1963 ± 641.9 mm^3 | Tumor weight (Human lung cancer H460; 20 mg/kg × 25, i.p.): 1.40 ± 0.466 g
